From patent US20240199635A1, “TETRAHYDROTHIENO PYRIDINE DERIVATIVES AS DDRS INHIBITORS” (CHIESI FARMACEUTICI S.P.A., priority 2021, published 2024) come the findings set out here.

Assay [1] addresses T1, DDR1 (Homo sapiens (Human), UniProt Q08345). In words: DDR1 binding assay (LanthaScreen Europium Kinase Binding assay). Conditions: potency class, read-out: Ki DDR1. The procedure, abridged: (§1)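 TR-FRET tracer displacement: compounds incubated 1 h at room temperature with 5 nM DDR1 (20 nM Tracer 178) or 5 nM DDR2 (10 nM Tracer 178), 2 nM Eu-anti-GST antibody, HEPES pH 7.5 buffer. 665/615 nm ratio read; IC50 from 4-parameter fit, converted to Ki by Cheng-Prusoff.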

The target in assay [2] is T2, DDR2 (Homo sapiens (Human), UniProt Q16832). In words: DDR2 binding assay (LanthaScreen Europium Kinase Binding assay). The conditions noted are these: potency class, read-out: Ki DDR2. The gist of the method: as §1
In assay [3] the target is T1, DDR1. Briefly: DDR1 cell based assay (PathHunter U2OS DDR1 assay). The conditions noted are these: U2OS-DDR1 cells, Type II Collagen stimulation, potency class. The procedure, abridged:
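Receptor activation measured by enzyme-fragment complementation luminescence in engineered U2OS cells. Compound added 30 min before overnight challenge with 20 μg/ml bovine collagen II; data scaled between vehicle and collagen-stimulated controls, IC50 derived by four-parameter variable-slope fitting.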

Assay [4] deals with T2, DDR2. In words: DDR2 cell based assay (phospho-ELISA in HEK293T-DDR2 recombinant cells). The conditions noted are these: DDR2 phosphorylation, Type II Collagen stimulation, potency class, read-out: IC50DDR2. How it is done:
The inhibition of DDR2 phosphorylation by compounds was evaluated in HEK293T-DDR2 recombinant cells by phospho-ELISA assay. Briefly, HEK293T-DDR2 cells were seeded in poly-D-lysine-coated 24-well plates at a density of 250,000 cells/well and incubated for 1.5 hours at 37° C. and 5% CO2 in DMEM+10% FBS. After that, the medium was changed to serum-free DMEM and cells were incubated for 3 hours. Then. test compounds were added at different concentrations 30 minutes before stimulation with bovine Type II Collagen at […] for further 3 hours. For DDR2 phospho-ELISA assay (DuoSet IC Human Phospho-DDR2; R&D Systems), protein extracts were obtained by adding 60 μl/well of lysis buffer prepared according to the manufacturer's instructions. Protein concentration in the samples was determined by BCA assay and the levels of phospho-DDR2 were determined following R&D Systems indications. Raw data were normalized to maximal inhibition control (0% for normalization) and positive control (100% for normalization; cells treated with 20 μg/ml collagen II) and IC50 parameters were calculated in GraphPad Prism 8.0 software, using sigmoidal dose-response curve fitting with variable slope.

T1 sequence (Q08345 19-913): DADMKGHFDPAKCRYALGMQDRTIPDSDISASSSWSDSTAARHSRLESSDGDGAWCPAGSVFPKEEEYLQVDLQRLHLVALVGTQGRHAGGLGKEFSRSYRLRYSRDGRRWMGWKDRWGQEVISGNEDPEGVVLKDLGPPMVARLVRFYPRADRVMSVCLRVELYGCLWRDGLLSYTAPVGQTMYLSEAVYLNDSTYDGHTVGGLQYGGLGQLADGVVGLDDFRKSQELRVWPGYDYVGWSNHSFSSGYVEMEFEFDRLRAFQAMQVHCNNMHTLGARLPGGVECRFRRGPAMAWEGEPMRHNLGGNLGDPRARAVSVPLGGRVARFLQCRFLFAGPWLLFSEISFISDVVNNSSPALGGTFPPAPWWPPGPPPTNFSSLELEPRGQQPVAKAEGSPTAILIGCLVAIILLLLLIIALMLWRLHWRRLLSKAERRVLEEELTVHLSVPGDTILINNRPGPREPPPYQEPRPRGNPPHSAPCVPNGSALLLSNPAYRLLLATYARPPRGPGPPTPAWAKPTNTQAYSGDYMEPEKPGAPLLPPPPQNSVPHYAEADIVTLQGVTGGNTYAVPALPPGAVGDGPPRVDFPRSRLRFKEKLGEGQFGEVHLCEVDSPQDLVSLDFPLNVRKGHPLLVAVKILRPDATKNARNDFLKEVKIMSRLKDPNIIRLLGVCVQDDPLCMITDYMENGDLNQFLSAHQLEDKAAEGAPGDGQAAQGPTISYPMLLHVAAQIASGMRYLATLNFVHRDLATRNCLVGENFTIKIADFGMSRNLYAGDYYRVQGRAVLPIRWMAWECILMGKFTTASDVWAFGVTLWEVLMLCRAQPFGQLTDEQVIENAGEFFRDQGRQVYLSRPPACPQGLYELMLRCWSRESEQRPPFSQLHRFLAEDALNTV
T2 sequence (Q16832 22-855): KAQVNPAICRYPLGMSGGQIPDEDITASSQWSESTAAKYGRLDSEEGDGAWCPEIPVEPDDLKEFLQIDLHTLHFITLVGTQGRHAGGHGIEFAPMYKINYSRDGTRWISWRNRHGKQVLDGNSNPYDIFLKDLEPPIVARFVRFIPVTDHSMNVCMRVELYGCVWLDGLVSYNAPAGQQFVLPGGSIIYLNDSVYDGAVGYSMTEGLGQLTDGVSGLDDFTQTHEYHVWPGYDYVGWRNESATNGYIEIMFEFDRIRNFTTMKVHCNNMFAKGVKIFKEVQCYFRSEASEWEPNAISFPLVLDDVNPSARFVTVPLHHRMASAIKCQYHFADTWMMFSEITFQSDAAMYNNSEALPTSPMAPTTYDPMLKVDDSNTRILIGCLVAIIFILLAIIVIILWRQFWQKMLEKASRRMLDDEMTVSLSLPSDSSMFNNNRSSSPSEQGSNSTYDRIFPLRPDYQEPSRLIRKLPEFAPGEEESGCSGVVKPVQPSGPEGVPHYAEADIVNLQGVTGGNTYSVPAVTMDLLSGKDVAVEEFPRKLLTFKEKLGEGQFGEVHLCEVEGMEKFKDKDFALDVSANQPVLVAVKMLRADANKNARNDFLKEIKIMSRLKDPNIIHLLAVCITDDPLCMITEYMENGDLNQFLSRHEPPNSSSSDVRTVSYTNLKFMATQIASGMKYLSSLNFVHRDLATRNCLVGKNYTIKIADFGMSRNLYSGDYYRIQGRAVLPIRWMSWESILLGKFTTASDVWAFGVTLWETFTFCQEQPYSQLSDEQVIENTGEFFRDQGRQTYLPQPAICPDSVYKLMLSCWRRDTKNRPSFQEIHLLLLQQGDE

For `CC(F)(F)c1cccc(NC(=O)c2csc3c2CCN(Cc2cnc(N)nc2)C3)c1` [Example 58, 6-((2-aminopyrimidin-5-yl)methyl)-N-(3-(1,1-difluoroethyl)phenyl)-4,5,6,7-tetrahydrothieno[2,3-c]pyridine-3-carboxamide], the Ki at DDR1 [1] and on DDR2 [2] was below 25 nM in each case. The IC50 against DDR1 [3] and at DDR2 [4] was 25 to 50 nM in each case.
For the compound `O=C(Nc1cc(F)cc(C(F)(F)F)c1)c1csc2c1CCN(Cc1cncnc1)C2` [Example 4, N-(3-fluoro-5-(trifluoromethyl)phenyl)-6-(pyrimidin-5-ylmethyl)-4,5,6,7-tetrahydrothieno[2,3-c]pyridine-3-carboxamide], the Ki on DDR1 [1] and on DDR2 [2] was below 25 nM in each case. For the same compound, the IC50 against DDR1 [3] and on DDR2 [4] was below 25 nM in each case.
Regarding `Cn1nc(NC(=O)c2csc3c2CCN(Cc2cnc(N)nc2)C3)cc1C(C)(C)C` [Example 63, 6-((2-aminopyrimidin-5-yl)methyl)-N-(5-(tert-butyl)-1-methyl-1H-pyrazol-3-yl)-4,5,6,7-tetrahydrothieno[2,3-c]pyridine-3-carboxamide], the Ki on DDR1 [1] and on DDR2 [2] was below 25 nM each time. In addition, the IC50 at DDR1 [3] and on DDR2 [4] was below 25 nM each time.
Consider `Cn1cc(Nc2ncc(CN3CCc4c(C(=O)Nc5cc(C(C)(C)C)nn5C)csc4C3)cn2)cn1` [Example 16, N-(3-(tert-butyl)-1-methyl-1H-pyrazol-5-yl)-6-((2-((1-methyl-1H-pyrazol-4-yl)amino)pyrimidin-5-yl)methyl)-4,5,6,7-tetrahydrothieno[2,3-c]pyridine-3-carboxamide], for which the Ki on DDR1 [1] and at DDR2 [2] was below 25 nM each time. Besides, the IC50 against DDR1 [3] and at DDR2 [4] was below 25 nM throughout.
`CC(C)(C)c1cc(NC(=O)c2csc3c2CCN(Cc2cnc(N)nc2)C3)no1` [Example 64, 6-((2-aminopyrimidin-5-yl)methyl)-N-(5-(tert-butyl)isoxazol-3-yl)-4,5,6,7-tetrahydrothieno[2,3-c]pyridine-3-carboxamide]: the Ki on DDR1 [1] and at DDR2 [2] was below 25 nM in each case. Further, the IC50 against DDR1 [3] and on DDR2 [4] was below 25 nM each time.
Take `CC(=O)Nc1ncc(CN2CCc3c(C(=O)Nc4cc(F)cc(C(F)(F)F)c4)csc3C2)cn1` [Example 39, 6-((2-acetamidopyrimidin-5-yl)methyl)-N-(3-fluoro-5-(trifluoromethyl)phenyl)-4,5,6,7-tetrahydrothieno[2,3-c]pyridine-3-carboxamide]: the Ki on DDR1 [1] and on DDR2 [2] was below 25 nM each time. Also, the IC50 on DDR1 [3] and on DDR2 [4] was 25 to 50 nM throughout.
With `Nc1ncc(CN2CCc3c(C(=O)Nc4cc(F)cc(C(F)(F)F)c4)csc3C2)cn1` [Example 38, 6-((2-aminopyrimidin-5-yl)methyl)-N-(3-fluoro-5-(trifluoromethyl)phenyl)-4,5,6,7-tetrahydrothieno[2,3-c]pyridine-3-carboxamide], the Ki at DDR1 [1] and at DDR2 [2] was below 25 nM in each case. The IC50 against DDR1 [3] and at DDR2 [4] was below 25 nM in each case.
Take `Cn1cc(Nc2ncc(CN3CCc4c(C(=O)Nc5cccc(C(F)(F)F)c5)csc4C3)cn2)cn1` [Example 18, 6-((2-((1-methyl-1H-pyrazol-4-yl)amino)pyrimidin-5-yl)methyl)-N-(3-(trifluoromethyl)phenyl)-4,5,6,7-tetrahydrothieno[2,3-c]pyridine-3-carboxamide]: the Ki on DDR1 [1] and at DDR2 [2] was below 25 nM throughout. Moreover, the IC50 against DDR1 [3] and at DDR2 [4] was below 25 nM throughout.
Regarding `Nc1nccnc1CN1CCc2c(C(=O)Nc3cc(F)cc(C(F)(F)F)c3)csc2C1` [Example 46, 6-((3-aminopyrazin-2-yl)methyl)-N-(3-fluoro-5-(trifluoromethyl)phenyl)-4,5,6,7-tetrahydrothieno[2,3-c]pyridine-3-carboxamide], the Ki at DDR1 [1] and on DDR2 [2] was below 25 nM in each case. Further, the IC50 at DDR1 [3] and on DDR2 [4] was below 25 nM each time.
Take `Nc1ncncc1CN1CCc2c(C(=O)Nc3cc(F)cc(C(F)(F)F)c3)csc2C1` [Example 45, 6-((4-aminopyrimidin-5-yl)methyl)-N-(3-fluoro-5-(trifluoromethyl)phenyl)-4,5,6,7-tetrahydrothieno[2,3-c]pyridine-3-carboxamide]: the inhibition constant (Ki) on DDR1 [1] and on DDR2 [2] was below 25 nM in each case. The IC50 on DDR1 [3] and on DDR2 [4] was below 25 nM each time.
